Experimental data reported in the supplement of paper PMC10307832.

Key:
Assay in all cases: relative viability (nuclei count vs DMSO), 5 days (fraction); higher = more cells survive
MLN4924 + Pictilisib = compound: NS(=O)(=O)OC[C@@H]1C[C@@H](n2ccc3c(N[C@H]4CCc5ccccc54)ncnc32)C[C@@H]1O [MLN4924] + CS(=O)(=O)N1CCN(Cc2cc3nc(-c4cccc5[nH]ncc45)nc(N4CCOCC4)c3s2)CC1 [Pictilisib] (partner 1 µM)
Procedure, shortened: (§1)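 One day after seeding in 1536-well plates, lung cancer cell lines were dosed by pin tool. Dosing was either single-drug or a fixed anchor-drug dose plus five library-drug doses (not always all listed) in √10 steps. After 5 days, nuclei were stained in one fix-and-stain step and counted on 4× images, and relative viability is the nuclei count of treated wells over that of vehicle wells, given as the median of duplicate plates.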

MLN4924 + Olaparib = compound: NS(=O)(=O)OC[C@@H]1C[C@@H](n2ccc3c(N[C@H]4CCc5ccccc54)ncnc32)C[C@@H]1O [MLN4924] + O=C(c1cc(Cc2n[nH]c(=O)c3ccccc23)ccc1F)N1CCN(C(=O)C2CC2)CC1 [Olaparib] (partner 8 µM)
Procedure, shortened: as §1

GSK126 + OSI-027 = compound: CC[C@H](C)N1C=C(C2=C(C=C(C=C21)C3=CN=C(C=C3)N4CCNCC4)C(=O)NCC5=C(C=C(NC5=O)C)C)C [GSK126] + COc1cccc2cc(-c3nc([C@H]4CC[C@H](C(=O)O)CC4)n4ncnc(N)c34)[nH]c12 [OSI-027] (partner 0.5 µM)
Procedure, shortened: as §1

GSK126 + Olaparib = compound: CC[C@H](C)N1C=C(C2=C(C=C(C=C21)C3=CN=C(C=C3)N4CCNCC4)C(=O)NCC5=C(C=C(NC5=O)C)C)C [GSK126] + O=C(c1cc(Cc2n[nH]c(=O)c3ccccc23)ccc1F)N1CCN(C(=O)C2CC2)CC1 [Olaparib] (partner 8 µM)
Procedure, shortened: as §1

Cell Line | relative viability (MLN4924 + Pictilisib; first compound 0.04 µM) | relative viability (MLN4924 + Pictilisib; first compound 0.1265 µM) | relative viability (MLN4924 + Pictilisib; first compound 0.4 µM) | relative viability (MLN4924 + Pictilisib; first compound 1.265 µM) | relative viability (MLN4924 + Pictilisib; first compound 4 µM) | relative viability (MLN4924 + Olaparib; first compound 0.04 µM) | relative viability (MLN4924 + Olaparib; first compound 0.1265 µM) | relative viability (MLN4924 + Olaparib; first compound 0.4 µM) | relative viability (MLN4924 + Olaparib; first compound 1.265 µM) | relative viability (MLN4924 + Olaparib; first compound 4 µM) | relative viability (GSK126 + OSI-027; first compound 0.08 µM) | relative viability (GSK126 + OSI-027; first compound 0.253 µM) | relative viability (GSK126 + OSI-027; first compound 0.8 µM) | relative viability (GSK126 + OSI-027; first compound 2.53 µM) | relative viability (GSK126 + OSI-027; first compound 8 µM) | relative viability (GSK126 + Olaparib; first compound 0.08 µM) | relative viability (GSK126 + Olaparib; first compound 0.253 µM) | relative viability (GSK126 + Olaparib; first compound 0.8 µM) | relative viability (GSK126 + Olaparib; first compound 2.53 µM) | relative viability (GSK126 + Olaparib; first compound 8 µM)
NCI-H1437 | 0.423 | 0.409 | 0.355 | 0.0891 | 0.081 | 0.582 | 0.499 | 0.409 | 0.253 | 0.153 | 0.913 | 0.854 | 0.77 | 0.844 | 0.828 | 0.649 | 0.621 | 0.605 | 0.554 | 0.575
EMC-BAC-2 | 0.242 | 0.569 | 0.213 | 0.155 | 0.192 | 0.397 | 0.286 | 0.225 | 0.214 | 0.241 | 0.398 | 0.381 | 0.397 | 0.379 | 0.373 | 0.512 | 0.436 | 0.502 | 0.436 | 0.47
NCI-H520 | 0.322 | 0.402 | 0.359 | 0.276 | 0.238 | 0.273 | 0.217 | 0.24 | 0.151 | 0.167 | 0.313 | 0.269 | 0.289 | 0.307 | 0.314 | 0.401 | 0.347 | 0.311 | 0.462 | 0.37
NCI-H1993 | 0.701 | 0.681 | 0.7 | 0.647 | 0.643 | 0.776 | 0.481 | 0.652 | 0.422 | 0.426 | 0.492 | 0.53 | 0.557 | 0.542 | 0.541 | 1.21 | 1.02 | 1 | 1.06 | 0.893
HCC-827 | 1.12 | 0.641 | 0.808 | 0.382 | 0.311 | 0.637 | 0.412 | 0.34 | 0.164 | 0.141 | 0.803 | 0.83 | 0.768 | 0.768 | 0.776 | 0.725 | 0.642 | 0.617 | 0.726 | 0.601
NCI-H2087 | 0.972 | 0.75 | 0.342 | 0.118 | 0.133 | 0.552 | 0.54 | 0.281 | 0.159 | 0.0852 | 0.674 | 0.466 | 0.595 | 0.706 | 0.786 | 0.62 | 0.6 | 0.683 | 0.752 | 0.788
HARA | 0.552 | 0.388 | 0.184 | 0.0759 | 0.0734 | 0.401 | 0.413 | 0.127 | 0.0734 | 0.107 | 0.543 | 0.541 | 0.476 | 0.466 | 0.392 | 0.994 | 0.911 | 0.934 | 0.861 | 0.657
NCI-H2126 | 0.497 | 0.457 | 0.315 | 0.267 | 0.264 | 0.862 | 0.668 | 0.618 | 0.258 | 0.246 | 0.725 | 0.861 | 0.721 | 0.649 | 0.707 | 0.963 | 0.957 | 0.884 | 0.916 | 0.915
